According to US20130280212A1, “INHIBITORS OF CYTOCHROME P450” (GILEAD SCIENCES, INC, priority 2010, published 2013):
Where two headings read alike, the source gives them in different places.

Molecular target: T1, CYP3A4 (Homo sapiens, UniProt P08684)
T1 construct: Pooled (n≧15 donors) human hepatic microsomal fraction was obtained from BD-Gentest; tissue BD-Gentest (Woburn, Mass.); host or cells: pooled human liver microsomes (n≧15 donors)
Experiment: CYP3A inhibition assay in pooled human hepatic microsomal fraction (midazolam 1-hydroxylase and testosterone 6β-hydroxylase activities)
Format: biochemical
Settings: human hepatic microsomes
Description: The initial mobile phase consisted of 94.9% water, 0.1% formic acid, and 5% acetonitrile (v/v/v) pumped at 0.5 mL/min. After 0.5 min the acetonitrile concentration was increased to 30% over 0.5 min. The acetonitrile concentration was then further increased to 100% over 0.5 min and held for 1.3 min, after which the column was re equilibrated at the initial conditions for 1.2 min. Rates of metabolite formation were determined from standard curves using PAR determined with authentic metabolite standards.

[1] = probe activity midazolam 1-hydroxylase, read-out: CYP3A4 IC50 (μM) (midazolam)
[2] = probe activity testosterone 6β-hydroxylase, substrate 50 μM, read-out: CYP3A4 IC50 (μM) (testosterone)

T1 sequence (P08684 2-503): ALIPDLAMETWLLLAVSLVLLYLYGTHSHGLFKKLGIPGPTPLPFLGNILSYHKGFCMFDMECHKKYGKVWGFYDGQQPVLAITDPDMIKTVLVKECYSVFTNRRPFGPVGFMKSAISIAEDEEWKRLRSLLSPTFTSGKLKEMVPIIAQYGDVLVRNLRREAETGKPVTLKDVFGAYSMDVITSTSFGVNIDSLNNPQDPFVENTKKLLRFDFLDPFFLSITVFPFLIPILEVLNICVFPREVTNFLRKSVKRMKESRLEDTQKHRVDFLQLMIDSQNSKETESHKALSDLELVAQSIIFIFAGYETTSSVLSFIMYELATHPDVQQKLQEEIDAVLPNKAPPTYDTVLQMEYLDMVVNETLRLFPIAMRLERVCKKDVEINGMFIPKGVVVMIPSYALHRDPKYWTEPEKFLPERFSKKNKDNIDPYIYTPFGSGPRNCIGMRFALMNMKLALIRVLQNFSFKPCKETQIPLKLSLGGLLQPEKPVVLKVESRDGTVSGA

Row | Compound | IC50 [1] [µM] | IC50 [2] [µM]
1 | CCC(C)OC(=O)N[C@H](CC[C@H](Cc1ccccc1)NC(=O)OCc1cncs1)Cc1ccccc1 (some centres unmarked) [Compound 9] | 0.13 | 0.43
2 | CC(CC(C)(C)C)OC(=O)N[C@H](CC[C@H](Cc1ccccc1)NC(=O)OCc1cncs1)Cc1ccccc1 (some centres unmarked) [Compound 13] | 0.4 | 0.54
3 | CCC(C)NC(=O)N[C@H](CC[C@H](Cc1ccccc1)NC(=O)OCc1cncs1)Cc1ccccc1 (some centres unmarked) [Compound 15] | < 0.1 | 0.25
4 | CCC(CC)OC(=O)N[C@H](CC[C@H](Cc1ccccc1)NC(=O)OCc1cncs1)Cc1ccccc1 [Compound 10] | 0.2 | 0.5
5 | CC(C)CC(OC(=O)N[C@H](CC[C@H](Cc1ccccc1)NC(=O)OCc1cncs1)Cc1ccccc1)C(C)C (some centres unmarked) [Compound 12] | 0.38 | 0.4
6 | CC(C)OC(=O)N[C@H](CC[C@H](Cc1ccccc1)NC(=O)OCc1cncs1)Cc1ccccc1 [Compound 8] | < 0.1 | 0.38
7 | CC(C)[C@H]1CC[C@H](C(=O)N[C@H](CC[C@H](Cc2ccccc2)NC(=O)OCc2cncs2)Cc2ccccc2)CC1 [Compound 4] | < 0.1 | 3.4
8 | CC[C@H](C)C(=O)N[C@H](CC[C@H](Cc1ccccc1)NC(=O)OCc1cncs1)Cc1ccccc1 [Compound 7] | < 0.1 | 0.36
9 | O=C(N[C@H](CC[C@H](Cc1ccccc1)NC(=O)[C@H]1CC[C@H](c2ccc(Cl)cc2)CC1)Cc1ccccc1)OCc1cncs1 [Compound 5] | 1.8 | > 25
10 | CC(C)S(=O)(=O)N[C@H](CC[C@H](Cc1ccccc1)NC(=O)OCc1cncs1)Cc1ccccc1 [Compound 17] | < 0.1 | 0.32
11 | CCC(C)S(=O)(=O)N[C@H](CC[C@H](Cc1ccccc1)NC(=O)OCc1cncs1)Cc1ccccc1 (some centres unmarked) [Compound 18] | < 0.1 | 0.34
12 | CC(C)CC(C)OC(=O)N[C@H](CC[C@H](Cc1ccccc1)NC(=O)OCc1cncs1)Cc1ccccc1 (some centres unmarked) [Compound 11] | 0.25 | 0.71
13 | CC(C)NC(=O)N[C@H](CC[C@H](Cc1ccccc1)NC(=O)OCc1cncs1)Cc1ccccc1 [Compound 14] | < 0.1 | 0.27
14 | C[C@H]1CC[C@H](C(=O)N[C@H](CC[C@H](Cc2ccccc2)NC(=O)OCc2cncs2)Cc2ccccc2)CC1 [Compound 3] | 0.12 | 0.27
15 | CCC(CC)NC(=O)N[C@H](CC[C@H](Cc1ccccc1)NC(=O)OCc1cncs1)Cc1ccccc1 [Compound 16] | < 0.1 | 0.41
16 | CC[C@@H](C(=O)N[C@H](CC[C@H](Cc1ccccc1)NC(=O)OCc1cncs1)Cc1ccccc1)c1ccccc1 [Compound 6] | 0.51 | 1.4
